Measurements as given in patent US6011014A, “Peptide T and related peptides in the treatment of inflammation, including multiple sclerosis” (Advanced Immunit, Inc., priority 1998, dated 2000).
Square brackets hold non-standard residues; d marks the D form. Peptide text beside a SMILES is read from it.

Tests used:
[1] = system: Mice bearing Meth A ascites tumours; experiment: LPS toxicity in Meth A ascites tumour bearing mice; type: in vivo, mouse; conditions: 100 μg LPS s.c. + 1 mg analogue; for % mice surviving 41 hours: LPS + BSA 60; for % mice with diarrhoea at 19 hrs / % mice with exudate at 19 hrs: LPS + BSA 100
Protocol: Mice bearing Meth A ascites tumours were given 100 μg LPS subcutaneously with either bovine serum albumin (BSA) or peptide T analogue (504 or 505, 1 mg). The number of animals showing signs of LPS toxicity (diarrhoea, exudate from the eyes and general level of activity) in each group was recorded at 19, 24 and 41 hours after injection. At the completion of the experiment the number of surviving animals was recorded (see Table II below) and the survivors bled for later determination of TNF, IL-1 , IL-6 and RNI levels.

human neutrophils [2] = experiment: LPS-induced neutrophil chemiluminescence; type: cell-based; conditions: LPS 0.005 μg/ml; FIG. 14
Protocol: (§1) Neutrophils were isolated from whole blood from healthy blood donors. Separation was achieved by the rapid-single-step method of centrifugation of whole blood on FICOLL-HYPAQUE™. These were >99% viable and usually >98% pure.
(§2) To 100 μl of 500-1000 U/ml of TNF was added 10 μl of peptide and after 5 min 100 μl of 1×10^7 neutrophils/ml was added. The cells further incubated at 37° C. /20 min and then tested for chemiluminescence activity. In some cases an agonist such as fMLP (10^-7 M) was added. Chemiluminescence was measured in a luminometer (LKB). The results for Peptide T are presented in FIG. 12 as peak rate of CL release. Lucigenin-dependent chemiluminescence was measured: this represents superoxide measurement. In another set of experiments the effects of analogue 505 on the LPS-induced neutrophil chemiluminescence were examined. In this case the LPS was essentially substituted for the TNF. The concentration of LPS was 0.005 μg/ml.

human neutrophils [3] = experiment: TNF-induced neutrophil chemiluminescence; type: cell-based; conditions: FIG. 13
Protocol: as §1
TNF was a recombinant product produced in E. coli. Peptide T and analogue 505 (D-Ser-Ser-D-Thr-Thr-D-Thr-Thr-Tyr-D-Thr) were resuspended in Hank's Balanced Salt Solution (HBSS).
as §2

[4] = pharmacokinetics of Peptide T; conditions: following administration in vivo
From the text: Initial research in this area was focused on the CNS for two reasons: a high concentration of CD4 molecules was found on neurons and one of the major effect of HIV infection is the development of neurocognitive dysfunction.
1. Macrophages may be more sensitive to Peptide T than are T cells, since T cells receive many more potential activating signals than the CD4/MHC II interaction. Thus macrophages may be down regulated by Peptide T administration on the first day of in vitro culture inhibiting their ability to present mitogens and antigens to T cells. B cells can act as APC in place of macrophages when presenting antigen, but not when presenting mitogens which are antigen non-specific (explaining the results of Table III). Resting B cells are resistant to Peptide T as they are CD4 negative. In the presence of a single dose of Peptide T, they could present antigen to T cells allowing proliferation of PBMC in response to antigen. When Peptide T is given on a daily basis in cultured T cells, which may be less sensitive to the effects of Peptide T, then macrophages may be inhibited. Daily administration of Peptide T in vivo, may not function as it does on a daily basis in vitro, since the half life of Peptide T in vivo is shorter than in vitro. In vitro serum supplements are heat inactivated to destroy proteolytic enzymes which actively degrade Peptide T in vivo. […]

[5] = tolerability of Peptide T therapy; type: in vivo, human; conditions: patients
From the text: Cyclosporine is an anti-inflammatory drug that inhibits lymphocyte proliferation by inhibiting IL-2 and IFN γ gene transcription by binding to and inactivating cyclophilin, an isomerase required for signal transduction (Halloran et al, Clin. Biochem. 24 3-7 (1991)). […] Cyclosporine induced side effects include renal tubular atrophy, nephrotoxicity, hypertension, hirsutism, gingival hypertrophy, tremors, convulsions and paresthesia (Briggs J.D. Immunol. Lett. 29 89-94 (1991)).

PBMC = experiment: mitogen-induced lymphoproliferation (Example 17, 20); type: cell-based, human; conditions: Con A-induced proliferation measured daily, 10^-9 M; FIG. 3
Protocol: Concanavalin A (Con A), pokeweed mitogen, (PWM) and phytohaemagglutin-P (PHA-P) were obtained from Sigma Chemical Co. (St. Louis, Mo., U.S.A.). Peptide T was synthesised by Carlbiotech Ltd (Copenhagen, Denmark) and supplied as the chloride salt at 8.5 mg/ml in 0.9% benzyl alcohol as a preservative and was stored at 4° C. Peptide T was diluted to working solutions in culture medium (RPMI). Dilute solutions of Peptide T were prepared fresh from stock Peptide T for each experiment. ^3 H-thymidine (5 Ci/mmol) was obtained from Amersham.
Isolation of PBMC: Whole blood from healthy, adult volunteers was drawn into heparin and peripheral blood mononuclear cells (PBMC) isolated by density gradient centrifugation on HISTOPAQUE™ (Sigma Chemical Co). PBMC were removed from the interface, washed three times in RPMI containing gentamycin (100 μg/ml) and resuspended to 1×10^6 PBMC/ml in RPMI containing 10% foetal bovine serum and gentamycin. 10^5 PBMC were cultured in the presence of 100 μl of mitogen suspension in 96 well plates. […] The amount of incorporated ^3 H-thymidine was determined using a BECKMAN™ LS8000 liquid scintillation counter and proliferation expressed as either counts per minute (cpm) or as a proliferation index (PI). […]
10^5 PBMC were cultured in the presence of PWM, Con A or PHA (see Example 17). […] Data were analysed by two sample ANOVA using 95% confidence limits.

[6] = system: MO/MAC cytotoxicity against K562 target cells; experiment: macrophage cytotoxicity assay; type: cell-based, human; conditions: Peptide T added with target cells (step 2) or every day; FIG. 7
Protocol: The MO/MAC cytotoxicity assay is a two step assay. After isolation of adherent cells (mainly MO/MAC) from PBMC, MO/MAC are activated by lymphokines (including IFN gamma and LPS. Subsequent to washing which removes activators, ^3 H-thymidine labelled K562 target cells were added to activated MO/MAC and incubated for 3 days. The degree of cytotoxicity was proportional to the amount of radioactive label released into the culture supernatant, is shown in the following scheme: […]

| Compound | % mice surviving 41 hours [1] | % mice with diarrhoea at 19 hrs [1] | % mice with exudate at 19 hrs [1] | LPS activation of human neutrophils (chemiluminescence) (human neutrophils [2]) | TNF priming and activation of human neutrophils (chemiluminescence) (human neutrophils [3]) | peak plasma concentrations [4] | side effects attributable to Peptide T therapy [5] | cytotoxicity for responding lymphocytes (PBMC) | cytotoxicity of activated MO/MAC [6] |
| --- | --- | --- | --- | --- | --- | --- | --- | --- | --- |
| C[C@H](O)[C@@H](NC(=O)[C@H](Cc1ccc(O)cc1)NC(=O)[C@@H](NC(=O)[C@H](NC(=O)[C@@H](NC(=O)[C@H](NC(=O)[C@H](CO)NC(=O)[C@H](N)CO)[C@H](C)O)[C@@H](C)O)[C@H](C)O)[C@@H](C)O)C(N)=O [compound 505, H-D-Ser-Ser-D-Thr-Thr-D-Thr-Thr-Tyr-D-Thr-NH2] (H-[dS]S[dT]T[dT]TY[dT]-NH2) | 100% | 40% | 20% | inhibits LPS activation of human neutrophils | inhibits TNF priming and activation of human neutrophils | – | – | – | – |
| C[C@H](O)[C@@H](NC(=O)[C@H](Cc1ccc(O)cc1)NC(=O)[C@H](CC(N)=O)NC(=O)[C@H](NC(=O)[C@@H](NC(=O)[C@H](NC(=O)[C@H](CO)NC(=O)[C@@H](C)N)[C@H](C)O)[C@@H](C)O)[C@H](C)O)C(N)=O [compound 504, H-D-Ala-Ser-D-Thr-Thr-D-Thr-Asn-Tyr-D-Thr-NH2] | 100% | 40% | 60% | – | – | – | – | – | – |
| C[C@@H](N)C(=O)N[C@@H](CO)C(=O)N[C@H](C(=O)N[C@H](C(=O)N[C@H](C(=O)N[C@@H](CC(N)=O)C(=O)N[C@@H](Cc1ccc(O)cc1)C(=O)N[C@H](C(N)=O)[C@@H](C)O)[C@@H](C)O)[C@@H](C)O)[C@@H](C)O [Peptide T, D-Ala-Ser-Thr-Thr-Thr-Asn-Tyr-Thr-Amide] | – | – | – | – | – | 55 nM | no significant side effects | not cytotoxic | inhibit the cytotoxicity |
